Laboratory results: ChEMBL document CHEMBL1133579, “Derivation of pharmacophore and CoMFA models for leukotriene D(4) receptor antagonists of the quinolinyl(bridged)aryl series” (J Med Chem, 2000)

Biological target: T1, Cysteinyl leukotriene receptor 1 (Cavia porcellus, UniProt Q2NNR5)
T1 sequence (Q2NNR5 whole entry): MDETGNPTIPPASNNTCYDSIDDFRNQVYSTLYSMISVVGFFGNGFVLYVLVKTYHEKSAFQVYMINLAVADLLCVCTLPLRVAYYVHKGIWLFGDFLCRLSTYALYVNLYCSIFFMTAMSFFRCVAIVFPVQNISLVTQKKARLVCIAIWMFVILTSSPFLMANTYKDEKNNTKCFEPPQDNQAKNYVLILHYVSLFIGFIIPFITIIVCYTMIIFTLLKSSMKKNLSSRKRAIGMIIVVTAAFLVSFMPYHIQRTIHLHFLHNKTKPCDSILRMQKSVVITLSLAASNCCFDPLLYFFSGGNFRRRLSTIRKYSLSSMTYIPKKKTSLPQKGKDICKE
Test: In vitro binding affinity towards Cysteinyl leukotriene D4 receptor by using [3H]LTD4 binding assay in guinea pig lung membranes; IA means inactive; call rule not given here
Assay type: cell membranes

| Ki | SMILES |
| --- | --- |
| Not Active | O=C(O)c1ccc(CCNC(=O)c2ccc3ccc(OCc4ccc5ccccc5c4)cc3c2)cc1 |
| Not Active | Cc1cn(Cc2ccc3ccccc3n2)c2cc(C(=O)NCCc3ccc(C(=O)O)cc3)ccc12 |
| Not Active | O=C(O)c1ccc(CCNC(=O)c2cc(=O)c3ccc(OCc4ccc5ccccc5n4)cc3o2)cc1 |

Biological target: T1, Cysteinyl leukotriene receptor 1
Test: In vitro binding affinity towards Cysteinyl leukotriene D4 receptor by using [3H]LTD4 binding assay in guinea pig lung membranes
Assay type: cell membranes, Membrane

| Ki [µM] | SMILES |
| --- | --- |
| 0.168 | O=C(Nc1cccc2c(=O)cc(C(=O)O)oc12)c1ccc(OCc2ccc3ccccc3n2)cc1 |
| 0.015 | Cc1ccccc1S(=O)(=O)NC(=O)c1ccc(CCNC(=O)c2ccc3ccc(OCc4ccc5ccccc5n4)cc3c2)cc1 |
| 0.038 | CC(C(=O)Nc1ccc(CCCC(=O)O)cc1)c1ccc2cc(OCc3ccc4ccccc4n3)ccc2c1 (stereo not given) |
| 0.0024 | O=C(O)Cc1ccc(CCNS(=O)(=O)c2ccc3ccc(OCc4ccc5ccccc5n4)cc3c2)cc1 |
| 0.0073 | O=C(O)CCCc1ccc(NC(=O)Cc2ccc(OCc3ccc4ccccc4n3)cc2)cc1 |
| 0.36 | CC(C(=O)NCCCCC(=O)O)c1ccc2cc(OCc3ccc4ccccc4n3)ccc2c1 (stereo not given) |
| 0.237 | O=C(O)c1ccc(CCNC(=O)C2CCc3ccc(OCc4ccc5ccccc5n4)cc3O2)cc1 (stereo not given) |
| 0.0026 | O=C(O)c1ccc(CCNS(=O)(=O)c2ccc3ccc(OCc4ccc5ccccc5n4)cc3c2)cc1 |
| 1.05 | Cn1cc(CC(=O)NCc2ccc(-c3nn[nH]n3)cc2)c2cc(OCc3ccc4ccccc4n3)ccc21 |
| 0.03 | O=C(Nc1cccc2c(=O)cc(C(=O)O)oc12)c1ccc2ccc(OCc3ccc4ccccc4n3)cc2c1 |
| 0.0048 | O=C(O)CCCc1ccc(NC(=O)Cc2ccc(OCc3ccc4ccc(Cl)cc4n3)cc2)cc1 |
| 0.03 | O=C(O)c1ccc2c(ccn2Cc2ccc3ccc(OCc4ccc5ccccc5n4)cc3c2)c1 |
| 0.088 | O=C(Cc1ccc(OCc2ccc3ccccc3n2)cc1)Nc1ccc(CCCc2nnn[nH]2)cc1 |
| 0.297 | CN(C(=O)Cc1ccc(OCc2ccc3ccccc3n2)cc1)c1ccc(CCCC(=O)O)cc1 |
| 0.118 | CC(C(=O)Nc1ccc(C(=O)O)cc1)c1ccc2cc(OCc3ccc4ccccc4n3)ccc2c1 (stereo not given) |
| 0.029 | CC(C(=O)NCc1cccc(-c2nnn[nH]2)c1)c1ccc2cc(OCc3ccc4ccccc4n3)ccc2c1 (stereo not given) |
| 0.07 | CC(C(=O)NCc1ccc(C(=O)O)cc1)c1ccc2cc(OCc3ccc4ccccc4n3)ccc2c1 (stereo not given) |
| 0.108 | O=C(Cc1ccc(OCc2ccc3ccccc3n2)cc1)Nc1ccc(Cc2nnn[nH]2)cc1 |
| 0.0056 | O=C(O)c1ccc(CCCOc2ccc3ccc(OCc4ccc5ccccc5n4)cc3c2)cc1 |
| 0.04 | O=C(O)CCCc1ccc(NC(=O)Cc2cccc(OCc3ccc4ccccc4n3)c2)cc1 |
| 0.595 | O=C(Nc1ccc(CCCc2nnn[nH]2)cc1)c1ccc(OCc2ccc3ccccc3n2)cc1 |
| 0.134 | CC(C(=O)NCc1ccc(CC(=O)O)cc1)c1ccc2cc(OCc3ccc4ccccc4n3)ccc2c1 (stereo not given) |
| 0.00105 | O=C(O)c1ccc(CCNC(=O)c2ccc3ccc(OCc4ccc5ccccc5n4)cc3c2)cc1 |
| 0.079 | O=C(O)c1ccc(CCNC(=O)c2ccc3ccc(OCc4ccc(-c5ccccc5)cn4)cc3c2)cc1 |
| 0.004 | O=C(O)c1ccc(OCC(O)COc2ccc3ccc(OCc4ccc5ccccc5n4)cc3c2)cc1 (stereo not given) |
| 2.59 | O=C(Cc1ccc(OCCCCc2ccccc2)cc1)Nc1ccc(CCCc2nnn[nH]2)cc1 |
| 0.015 | O=C(O)c1ccc(Cc2noc(-c3ccc4ccc(OCc5ccc6ccccc6n5)cc4c3)n2)cc1 |
